From article PMC11439681, “The identification of potent dual-target monopolar spindle 1 (MPS1) and histone deacetylase 8 (HDAC8) inhibitors through pharmacophore modeling, molecular docking, molecular dynamics simulations, and biological evaluation” (Frontiers in Pharmacology, 2024)

Key:
MPS1 = biological target: T1, MPS1 (Homo sapiens, UniProt P33981); assay: In vitro MPS1 inhibitory assay; type: biochemical
T1 construct: purchased Abcam
T1 sequence (P33981 1-857): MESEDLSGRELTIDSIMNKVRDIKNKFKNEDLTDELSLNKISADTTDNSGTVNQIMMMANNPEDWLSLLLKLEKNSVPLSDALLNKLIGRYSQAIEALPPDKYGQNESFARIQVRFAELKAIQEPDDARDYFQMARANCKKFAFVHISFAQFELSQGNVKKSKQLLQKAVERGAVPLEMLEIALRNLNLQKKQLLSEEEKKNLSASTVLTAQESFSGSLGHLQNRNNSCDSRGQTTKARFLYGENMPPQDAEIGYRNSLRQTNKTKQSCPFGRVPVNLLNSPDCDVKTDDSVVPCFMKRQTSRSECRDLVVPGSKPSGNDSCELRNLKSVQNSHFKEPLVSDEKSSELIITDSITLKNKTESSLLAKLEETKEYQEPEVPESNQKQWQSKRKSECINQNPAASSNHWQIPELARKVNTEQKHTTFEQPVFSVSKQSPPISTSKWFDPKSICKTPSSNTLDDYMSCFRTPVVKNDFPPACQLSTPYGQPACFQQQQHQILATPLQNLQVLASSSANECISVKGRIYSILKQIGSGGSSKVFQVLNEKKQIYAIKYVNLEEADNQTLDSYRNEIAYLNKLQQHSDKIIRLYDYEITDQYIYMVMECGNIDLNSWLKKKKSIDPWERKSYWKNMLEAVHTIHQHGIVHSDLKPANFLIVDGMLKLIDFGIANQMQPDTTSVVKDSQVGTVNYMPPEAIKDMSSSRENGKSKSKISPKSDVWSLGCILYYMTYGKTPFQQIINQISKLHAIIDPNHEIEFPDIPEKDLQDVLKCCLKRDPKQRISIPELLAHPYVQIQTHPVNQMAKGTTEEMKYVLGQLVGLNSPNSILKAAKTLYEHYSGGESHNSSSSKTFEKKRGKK
Experimental: The methodology is as previously described ([Naud et al., 2013]). In brief, the experiment was conducted using 384-well black low-volume plates, which were loaded with MPS1 (concentration range of 3–12.5 nM), 5 μM fluorescence-labelled peptide (sequence: 5FAM-[…]-CONH2), 10 μM ATP, 1% (v/v) DMSO or the test compound (concentrations in 1% (v/v) DMSO ranged from 0.25 to 100 μM), and assay buffer. […]. The plate was read on a Caliper EZ reader II (PerkinElmer Life Sciences, Waltham, MA, United States). […]

HepG2 liver cancer cells = assay: MTT cytotoxicity assay, HepG2; type: cell-based; settings: Homo sapiens, 72 h cell treatment
Experimental: (§1) The cells (5 × 10^4 cells/well) were incubated overnight in 96-well plates. A series of solutions containing varying concentrations of inhibitors were added and incubated at 37°C for a period of 72 h. Subsequently, the culture medium was removed, followed by a subsequent incubation of the cells with a 5 mg/mL MTT stock solution for 4 h. After centrifugation, the precipitate was solubilized in DMSO and gently shaken for 15 min. Finally, the absorbance measurement at 570 nm was completed using a microplate reader. Data analysis was performed using GraphPad Prism 6.0 software.

Li-7 = assay: MTT cytotoxicity assay, Li-7; type: cell-based; settings: Homo sapiens, 72 h cell treatment
Experimental: as §1

L02 = assay: MTT cytotoxicity assay, L02 normal cells; type: cell-based; settings: Homo sapiens, 72 h cell treatment
Experimental: as §1

BMX = biological target: T2, BMX (Homo sapiens, UniProt P51813); assay: In vitro selectivity assay; type: biochemical; settings: selectivity panel
T2 construct: ICE Bioscience Inc. (assay service)
T2 sequence (P51813 whole entry): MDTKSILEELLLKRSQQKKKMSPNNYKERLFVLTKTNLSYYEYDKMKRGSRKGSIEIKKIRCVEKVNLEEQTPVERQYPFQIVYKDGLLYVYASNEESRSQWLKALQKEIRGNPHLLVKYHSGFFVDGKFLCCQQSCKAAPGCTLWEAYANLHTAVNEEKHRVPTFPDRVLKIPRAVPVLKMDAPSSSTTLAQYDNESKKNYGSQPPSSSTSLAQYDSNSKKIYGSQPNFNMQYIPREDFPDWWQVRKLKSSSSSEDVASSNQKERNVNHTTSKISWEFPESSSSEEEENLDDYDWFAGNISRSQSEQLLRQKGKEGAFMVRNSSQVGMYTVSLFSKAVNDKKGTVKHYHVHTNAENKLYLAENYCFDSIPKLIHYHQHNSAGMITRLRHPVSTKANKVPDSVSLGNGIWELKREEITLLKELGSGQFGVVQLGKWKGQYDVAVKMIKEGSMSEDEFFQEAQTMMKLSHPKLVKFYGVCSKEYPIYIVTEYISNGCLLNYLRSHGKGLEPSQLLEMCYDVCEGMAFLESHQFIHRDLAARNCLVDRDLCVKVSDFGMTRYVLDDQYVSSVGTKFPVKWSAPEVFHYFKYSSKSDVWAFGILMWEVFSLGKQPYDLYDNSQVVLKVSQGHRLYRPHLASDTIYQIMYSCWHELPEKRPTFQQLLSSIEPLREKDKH
Experimental: (§2) The inhibitory effects of compound MPH-5 on a panel of 68 kinases and other histone deacetylases were evaluated to assess the selectivity profile of MPH-5. This experiment was conducted by ICE Bioscience Inc. (Beijing, China).

BTK = biological target: T3, BTK (Homo sapiens, UniProt Q06187); assay: In vitro selectivity assay; type: biochemical; settings: selectivity panel
T3 construct: ICE Bioscience Inc. (assay service)
T3 sequence (Q06187 whole entry): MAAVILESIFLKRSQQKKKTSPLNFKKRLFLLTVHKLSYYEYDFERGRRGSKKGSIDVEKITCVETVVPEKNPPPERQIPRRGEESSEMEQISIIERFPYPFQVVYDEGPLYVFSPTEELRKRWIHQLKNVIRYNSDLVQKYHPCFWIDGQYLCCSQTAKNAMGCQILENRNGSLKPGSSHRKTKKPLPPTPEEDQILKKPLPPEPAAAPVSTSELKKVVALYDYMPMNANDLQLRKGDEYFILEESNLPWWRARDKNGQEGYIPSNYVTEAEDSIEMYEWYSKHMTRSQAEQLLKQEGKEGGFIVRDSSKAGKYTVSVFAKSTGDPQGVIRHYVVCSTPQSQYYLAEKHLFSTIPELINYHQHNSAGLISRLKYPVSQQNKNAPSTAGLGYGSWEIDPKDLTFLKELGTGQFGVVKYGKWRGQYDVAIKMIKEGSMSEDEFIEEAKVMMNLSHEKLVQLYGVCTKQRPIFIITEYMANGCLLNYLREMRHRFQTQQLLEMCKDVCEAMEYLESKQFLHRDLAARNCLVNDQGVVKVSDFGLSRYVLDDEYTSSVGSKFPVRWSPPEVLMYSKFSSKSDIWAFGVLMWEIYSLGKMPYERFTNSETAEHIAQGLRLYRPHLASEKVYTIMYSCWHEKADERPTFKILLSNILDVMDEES
Experimental: as §2

CSF1R = biological target: T4, CSF1R (Homo sapiens, UniProt P07333); assay: In vitro selectivity assay; type: biochemical; settings: selectivity panel
T4 construct: ICE Bioscience Inc. (assay service)
Experimental: as §2

EPHA5 = biological target: T5, EPHA5 (Homo sapiens, UniProt P54756); assay: In vitro selectivity assay; type: biochemical; settings: selectivity panel
T5 construct: ICE Bioscience Inc. (assay service)
T5 sequence (P54756 25-1037): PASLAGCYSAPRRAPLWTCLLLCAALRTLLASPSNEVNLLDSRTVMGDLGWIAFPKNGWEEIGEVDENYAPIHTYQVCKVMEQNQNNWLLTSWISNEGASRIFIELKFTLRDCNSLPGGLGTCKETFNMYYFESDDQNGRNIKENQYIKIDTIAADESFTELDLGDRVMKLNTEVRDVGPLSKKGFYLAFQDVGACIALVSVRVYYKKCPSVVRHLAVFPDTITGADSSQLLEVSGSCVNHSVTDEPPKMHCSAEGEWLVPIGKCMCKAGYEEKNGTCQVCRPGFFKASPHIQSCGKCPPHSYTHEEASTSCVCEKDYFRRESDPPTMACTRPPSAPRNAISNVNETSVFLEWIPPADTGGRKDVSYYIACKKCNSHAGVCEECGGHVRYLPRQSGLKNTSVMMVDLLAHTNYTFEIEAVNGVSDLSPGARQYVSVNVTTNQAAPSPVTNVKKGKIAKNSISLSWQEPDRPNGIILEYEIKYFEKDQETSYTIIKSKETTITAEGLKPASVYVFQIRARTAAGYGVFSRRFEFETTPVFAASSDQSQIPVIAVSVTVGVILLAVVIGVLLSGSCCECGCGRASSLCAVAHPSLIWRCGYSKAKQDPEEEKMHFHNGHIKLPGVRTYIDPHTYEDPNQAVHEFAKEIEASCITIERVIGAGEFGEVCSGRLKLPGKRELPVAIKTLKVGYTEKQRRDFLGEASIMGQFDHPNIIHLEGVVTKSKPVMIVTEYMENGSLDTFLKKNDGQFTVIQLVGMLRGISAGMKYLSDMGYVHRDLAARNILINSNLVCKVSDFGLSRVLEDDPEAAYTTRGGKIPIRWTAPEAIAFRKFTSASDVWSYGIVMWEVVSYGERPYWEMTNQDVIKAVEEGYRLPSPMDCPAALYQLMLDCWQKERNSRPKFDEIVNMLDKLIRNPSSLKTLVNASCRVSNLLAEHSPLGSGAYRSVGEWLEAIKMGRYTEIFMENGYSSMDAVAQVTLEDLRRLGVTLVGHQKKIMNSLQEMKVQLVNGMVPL
Experimental: as §2

EPHA7 = biological target: T6, EPHA7 (Homo sapiens, UniProt Q15375); assay: In vitro selectivity assay; type: biochemical; settings: selectivity panel
T6 construct: ICE Bioscience Inc. (assay service)
Experimental: as §2

HCK = HCK (Homo sapiens, UniProt P08631); assay: In vitro selectivity assay; type: biochemical; settings: selectivity panel
Experimental: as §2

HDAC1 = biological target: T7, HDAC1 (Homo sapiens, UniProt Q13547); assay: In vitro selectivity assay; type: biochemical; settings: selectivity panel
T7 construct: ICE Bioscience Inc. (contract assay provider)
T7 sequence (Q13547 whole entry): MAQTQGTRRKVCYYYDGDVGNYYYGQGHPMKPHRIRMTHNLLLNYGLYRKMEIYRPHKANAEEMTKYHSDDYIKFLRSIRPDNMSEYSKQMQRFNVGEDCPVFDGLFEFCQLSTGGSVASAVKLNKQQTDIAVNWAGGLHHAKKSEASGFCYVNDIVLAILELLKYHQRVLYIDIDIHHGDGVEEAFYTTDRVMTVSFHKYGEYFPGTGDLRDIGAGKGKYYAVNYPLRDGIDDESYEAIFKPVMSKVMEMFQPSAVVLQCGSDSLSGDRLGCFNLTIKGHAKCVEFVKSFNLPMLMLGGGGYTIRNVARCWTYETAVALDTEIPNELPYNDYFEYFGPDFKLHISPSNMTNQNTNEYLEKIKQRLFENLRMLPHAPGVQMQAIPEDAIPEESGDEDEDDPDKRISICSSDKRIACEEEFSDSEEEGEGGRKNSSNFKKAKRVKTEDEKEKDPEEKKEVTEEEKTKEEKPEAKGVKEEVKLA
Experimental: as §2

HDAC3 = biological target: T8, HDAC3 (Homo sapiens, UniProt O15379); assay: In vitro selectivity assay; type: biochemical; settings: selectivity panel
T8 construct: ICE Bioscience Inc. (contract assay provider)
T8 sequence (O15379 whole entry): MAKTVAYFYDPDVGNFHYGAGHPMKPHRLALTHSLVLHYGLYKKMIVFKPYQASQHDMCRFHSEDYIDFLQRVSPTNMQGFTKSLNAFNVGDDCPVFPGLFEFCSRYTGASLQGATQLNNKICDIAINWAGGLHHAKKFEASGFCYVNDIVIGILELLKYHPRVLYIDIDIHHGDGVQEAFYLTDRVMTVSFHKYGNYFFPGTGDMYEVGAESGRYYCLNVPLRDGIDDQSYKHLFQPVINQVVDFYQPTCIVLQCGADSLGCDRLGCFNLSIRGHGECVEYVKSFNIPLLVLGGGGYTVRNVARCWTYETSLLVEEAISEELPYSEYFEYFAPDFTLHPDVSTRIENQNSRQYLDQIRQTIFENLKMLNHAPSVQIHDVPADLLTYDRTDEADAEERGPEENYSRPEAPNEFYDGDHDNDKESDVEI
T8 sequence (Q9Y618 395-489 partner limits assumed): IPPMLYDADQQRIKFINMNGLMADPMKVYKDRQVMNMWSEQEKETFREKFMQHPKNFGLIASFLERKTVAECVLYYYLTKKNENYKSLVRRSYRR
Experimental: as §2

HDAC6 = biological target: T9, HDAC6 (Homo sapiens, UniProt Q9UBN7); assay: In vitro selectivity assay; type: biochemical; settings: selectivity panel
T9 construct: ICE Bioscience Inc. (Beijing, China), the contract lab that ran the assay
Experimental: as §2

IGF1R = IGF1R (Homo sapiens, UniProt P08069); assay: In vitro selectivity assay; type: biochemical; settings: selectivity panel
Experimental: as §2

JAK3 = biological target: T10, JAK3 (Homo sapiens, UniProt P52333); assay: In vitro selectivity assay; type: biochemical; settings: selectivity panel
T10 construct: ICE Bioscience Inc. (contract assay provider)
Experimental: as §2

LYN = biological target: T11, LYN (Homo sapiens, UniProt P07948); assay: In vitro selectivity assay; type: biochemical; settings: selectivity panel
T11 construct: ICE Bioscience Inc. (contract assay provider)
Experimental: as §2

MERTK = biological target: T12, MERTK (Homo sapiens, UniProt Q12866); assay: In vitro selectivity assay; type: biochemical; settings: selectivity panel
T12 construct: ICE Bioscience Inc. (contract assay provider)
Experimental: as §2

MET = biological target: T13, MET (Homo sapiens, UniProt P08581); assay: In vitro selectivity assay; type: biochemical; settings: selectivity panel
T13 construct: ICE Bioscience Inc. (contract assay provider)
T13 sequence (P08581 25-1390): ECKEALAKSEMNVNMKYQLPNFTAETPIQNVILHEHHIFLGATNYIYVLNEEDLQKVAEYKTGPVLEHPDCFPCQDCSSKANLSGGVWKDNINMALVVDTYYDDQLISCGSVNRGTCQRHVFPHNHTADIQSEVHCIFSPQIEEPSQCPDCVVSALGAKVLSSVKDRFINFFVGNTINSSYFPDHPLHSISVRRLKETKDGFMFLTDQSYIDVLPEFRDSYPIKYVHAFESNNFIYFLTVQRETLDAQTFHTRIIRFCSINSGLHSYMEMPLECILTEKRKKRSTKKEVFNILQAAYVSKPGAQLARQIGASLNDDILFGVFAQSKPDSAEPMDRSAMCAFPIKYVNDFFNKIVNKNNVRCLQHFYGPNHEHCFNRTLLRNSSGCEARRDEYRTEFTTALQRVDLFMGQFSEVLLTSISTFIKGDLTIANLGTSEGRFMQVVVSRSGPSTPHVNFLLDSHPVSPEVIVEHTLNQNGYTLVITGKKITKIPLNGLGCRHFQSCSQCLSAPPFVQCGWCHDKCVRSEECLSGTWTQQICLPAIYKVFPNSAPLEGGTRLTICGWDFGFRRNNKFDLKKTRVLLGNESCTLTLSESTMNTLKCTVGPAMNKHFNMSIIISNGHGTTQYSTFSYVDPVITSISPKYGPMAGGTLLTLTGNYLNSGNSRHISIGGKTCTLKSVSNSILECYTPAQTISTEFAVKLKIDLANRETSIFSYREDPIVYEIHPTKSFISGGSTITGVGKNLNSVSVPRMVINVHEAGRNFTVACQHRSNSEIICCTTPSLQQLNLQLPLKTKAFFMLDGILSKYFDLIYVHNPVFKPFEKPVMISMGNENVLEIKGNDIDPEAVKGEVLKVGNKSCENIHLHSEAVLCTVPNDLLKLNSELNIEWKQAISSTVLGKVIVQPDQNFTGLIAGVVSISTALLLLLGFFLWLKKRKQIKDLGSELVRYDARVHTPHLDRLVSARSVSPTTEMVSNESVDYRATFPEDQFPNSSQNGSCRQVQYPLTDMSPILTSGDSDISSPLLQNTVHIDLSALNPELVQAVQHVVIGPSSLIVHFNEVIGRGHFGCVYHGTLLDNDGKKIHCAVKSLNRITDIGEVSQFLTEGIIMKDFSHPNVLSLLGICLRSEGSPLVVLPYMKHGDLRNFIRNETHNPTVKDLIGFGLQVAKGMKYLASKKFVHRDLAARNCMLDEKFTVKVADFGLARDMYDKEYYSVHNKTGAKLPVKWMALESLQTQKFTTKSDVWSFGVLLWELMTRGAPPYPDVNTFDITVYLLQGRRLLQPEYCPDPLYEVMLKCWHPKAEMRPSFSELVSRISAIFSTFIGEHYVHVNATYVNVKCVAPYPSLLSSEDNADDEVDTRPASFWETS
Experimental: as §2

MST1R = biological target: T14, MST1R (Homo sapiens, UniProt Q04912); assay: In vitro selectivity assay; type: biochemical; settings: selectivity panel
T14 construct: ICE Bioscience Inc. (contract assay provider)
Experimental: as §2

PIM1 = PIM1 (Homo sapiens, UniProt P11309); assay: In vitro selectivity assay; type: biochemical; settings: selectivity panel
Sequence of PIM1 (P11309 whole entry): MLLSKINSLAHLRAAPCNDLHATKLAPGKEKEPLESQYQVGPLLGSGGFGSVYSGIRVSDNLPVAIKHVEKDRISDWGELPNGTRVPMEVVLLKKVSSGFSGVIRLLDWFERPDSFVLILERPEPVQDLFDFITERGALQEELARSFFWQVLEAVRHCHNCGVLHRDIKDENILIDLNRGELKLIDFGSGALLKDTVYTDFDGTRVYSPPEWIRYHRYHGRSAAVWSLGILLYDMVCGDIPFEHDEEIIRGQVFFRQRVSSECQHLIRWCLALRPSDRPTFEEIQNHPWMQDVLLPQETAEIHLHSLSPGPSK
Experimental: as §2

RAF1 = RAF1 (Homo sapiens, UniProt P04049); assay: In vitro selectivity assay; type: biochemical; settings: selectivity panel
Experimental: as §2

ROS1 = ROS1 (Homo sapiens, UniProt P08922); assay: In vitro selectivity assay; type: biochemical; settings: selectivity panel
Experimental: as §2

SYK = biological target: T15, SYK (Homo sapiens, UniProt P43405); assay: In vitro selectivity assay; type: biochemical; settings: selectivity panel
T15 construct: ICE Bioscience Inc. (contract assay provider)
Experimental: as §2

ZAK = ZAK (Homo sapiens, UniProt Q9NYL2); assay: In vitro selectivity assay; type: biochemical; settings: selectivity panel
Experimental: as §2

ZAP70 = ZAP70 (Homo sapiens, UniProt P43403); assay: In vitro selectivity assay; type: biochemical; settings: selectivity panel
Experimental: as §2

Cn1cc(-c2cc3cnc(Nc4ccc(-c5cncn5/C=C/C(=O)NO)cc4Cl)cc3n2C(=O)OC(C)(C)C)cn1 [MPH-5]
IC50 (MPS1): 4.52 ± 0.21 nM | MPS1 IC50 of MPH-5 relative to AZ3146 (MPS1; vs AZ3146): about 8 fold | IC50 (HepG2 liver cancer cells): 0.19 µM | IC50 (Li-7): 0.64 µM | IC50 (L02): > 10 µM | IC50 (BMX): > 10 µM | IC50 (BTK): > 10 µM | IC50 (CSF1R): > 10 µM | IC50 (EPHA5): > 10 µM | IC50 (EPHA7): > 10 µM | IC50 (HCK): > 10 µM | IC50 (HDAC1): > 10 µM | IC50 (HDAC3): > 10 µM | IC50 (HDAC6): > 10 µM | IC50 (IGF1R): > 10 µM | IC50 (JAK3): > 10 µM | IC50 (LYN): > 10 µM | IC50 (MERTK): > 10 µM | IC50 (MET): > 10 µM | IC50 (MST1R): > 10 µM | IC50 (PIM1): > 10 µM | IC50 (RAF1): > 10 µM | IC50 (ROS1): > 10 µM | IC50 (SYK): > 10 µM | IC50 (ZAK): > 10 µM | IC50 (ZAP70): > 10 µM
